The test system of data set [1] is TNF-α-induced adhesion of monocytes to intestinal epithelial cells. In words: Inhibitory activity against TNF-α-induced adhesion of monocytes (U937) to intestinal epithelial cells (HT-29). The data set is classed as cell-based, human. The settings on record: Homo sapiens, 1 μM test drug; HT-29/U937 adhesion, 10 ng/mL TNF-α; read-out: Inhibitory activity (%). Here is the method:
HT-29 human colorectal cancer-derived epithelial cells and U937 human-derived monocytic cells were cultured in an RPMI 1640 medium containing 10% FBS and 1% penicillin/streptomycin (PS) at 37° C. under a condition of 5% CO2, and when the cells were grown to 80% or more in a culture flask, they were subcultured in a ratio of 1:3 to be used in this test. The HT-29 cells were cultured in a 24-well plate at a concentration of 2×10^5 cells/cm2, and then the medium only containing 1% FBS and 1% PS was pretreated with a test drug for 1 hour. Afterward, BCECF-loaded U937 cells by being treated with 10 μg/mL of BCECF-AM at 37° C. for 30 minutes and 10 ng/mL of TNF-α reacted with the HT-29 cells previously treated with the test drug at 37° C. for 3 hours. After the reaction, the medium was removed, and then the cells were washed with PBS twice to remove U937 cells that were not adhered. In a subsequent step, for cell lysis, 0.1% Triton X-100 (0.1 M Tris) was treated to allow a reaction at room temperature for 30 minutes, and then fluorescence was measured using a Fluostar optima microplate reader (BMG LABTECH, Germany) to quantify the cells (Carvalho et al., 1996; Thapa et al., 2008).

Data set [2] is described as follows: Cytotoxicity test (MTT), HT-29. In kind it is cell-based. The following applies: human, HT-29, 48 h; for viability at 48 h, 0.01 µM / viability at 48 h, 0.1 µM / viability at 48 h, 1 µM / viability at 48 h, 10 µM / viability at 48 h, 100 µM: HT-29 cells (colorectal cancer cell line), read-out: Cell viability (% of control); for IC50 at 48 h: HT-29 cells. The procedure:
(§1) The human colorectal cancer cell line HT-29 and the monocytic blood cancer-derived cell line U937 were cultured in a RPMI 1640 medium containing 10% FBS and 1% penicillin/streptomycin (PS) at 37° C. under a condition of 5% CO2, and when the cells used herein were grown to 80% or more, they were subcultured at a ratio of 1:3.
(§2) Each type of cells were cultured in a 96 well plate at a concentration of 1×10^5 cells/cm2, treated with a test compound by concentration in a medium only containing 1% FBS and 1% PS at 37° C. under a condition of 5% CO2 for 48 hours and reacted with 5 mg/mL of a 3-[4,5-dimethylthiazol-2-yl]-2,5-diphenyltetrazolium bromide (MTT) reagent for 4 hours, and then the medium was completely removed, the cells were treated with DMSO, formazan crystals were dissolved for 30 minutes, and then absorbance was measured at 540 nm.

A short description of data set [3]: Cytotoxicity test (MTT), U937. The data set is classed as cell-based. The settings on record: human, U937, 48 h; for viability at 48 h, 0.01 µM / viability at 48 h, 0.1 µM / viability at 48 h, 1 µM / viability at 48 h, 10 µM / viability at 48 h, 100 µM: U937 cells (monocytic blood cancer-derived cell line), read-out: Cell viability (% of control); for IC50 at 48 h: U937 cells. Here is the method: as §1, §2

Where [4] appears, read: read-out: IC50 (μM), cytotoxicity.

Molecules are shown by their SMILES. Bounds are passed on as bounds.

As usually defined, the viability is a read-out of living cells in per cent, often relative to untreated cells. Usually IC50 stands for the midpoint of a concentration-inhibition curve. With `Cc1nc(NC(=S)NC2CCCCC2)c(C)c(C)c1O` [Compound 18-3, 1-cyclohexyl-3-(5-hydroxy-3,4,6-trimethylpyridin-2-yl)thiourea], the inhibition at 1 µM in data set [1] was at least 50%. In data set [2], the viability at 48 h, 0.01 µM came out at 90.9 ± 5.1%; the viability at 48 h, 0.1 µM was 80.5 ± 10.4%; the viability at 48 h, 1 µM worked out at 66.8 ± 6.2%; the viability at 48 h, 10 µM is 67 ± 5%. In data set [2], the viability at 48 h, 100 µM worked out at 51.3 ± 6.7%. The IC50 at 48 h in data set [2] (setting [4]) is over 100 µM. In addition, in data set [3], the viability at 48 h, 0.01 µM turned out to be 88.8 ± 7%; the viability at 48 h, 0.1 µM worked out at 93.1 ± 1%; the viability at 48 h, 1 µM turned out to be 97.6 ± 1.3%; the viability at 48 h, 10 µM worked out at 87.7 ± 2%. In data set [3], the viability at 48 h, 100 µM stood at 84.3 ± 1.5% and the concentration for half-maximal inhibition (IC50) at 48 h was over 100 µM.

As to `COC(=O)Nc1nc(C)c(O)c(C)c1C` [Compound 20-1, methyl (5-hydroxy-3,4,6-trimethylpyridin-2-yl)carbamate], the inhibition at 1 µM in data set [1] is 9.8%. In data set [2], the viability at 48 h, 0.01 µM was determined as 89.7 ± 6.3%; the viability at 48 h, 0.1 µM stood at 84.9 ± 1.9%; the viability at 48 h, 1 µM worked out at 85 ± 3.4%; the viability at 48 h, 10 µM was found to be 82.6 ± 1.3%. Also, the viability at 48 h, 100 µM in data set [2] was determined as 73.7 ± 4.5%. Further, the IC50 at 48 h in data set [2] (setting [4]) is over 100 µM. For the same molecule, in data set [3], the viability at 48 h, 0.01 µM came out at 97.5 ± 1.6%; the viability at 48 h, 0.1 µM came to 95.1 ± 5.3%; the viability at 48 h, 1 µM came to 93.7 ± 1.2%; the viability at 48 h, 10 µM worked out at 80.9 ± 12.8%. Also, in data set [3], the viability at 48 h, 100 µM stood at 89.6 ± 1% and the concentration for half-maximal inhibition (IC50) at 48 h is over 100 µM.

For the molecule `CCCCNC(=S)Nc1nc(C)c(O)c(C)c1C` [Compound 18-1, 1-butyl-3-(5-hydroxy-3,4,6-trimethylpyridin-2-yl)thiourea], in data set [1], the inhibition at 1 µM was -19.9%. Moreover, in data set [2], the viability at 48 h, 0.01 µM came out at 93.5 ± 3.4%; the viability at 48 h, 0.1 µM turned out to be 95.2 ± 1.7%; the viability at 48 h, 1 µM stood at 96.9 ± 1.4%; the viability at 48 h, 10 µM was found to be 96.5 ± 2.3%. In addition, the viability at 48 h, 100 µM in data set [2] came out at 60.3 ± 0.5%. In data set [2] (setting [4]), the half-maximal inhibitory concentration (IC50) at 48 h was over 100 µM. In addition, in data set [3], the viability at 48 h, 0.01 µM stood at 95.4 ± 0.6%; the viability at 48 h, 0.1 µM was determined as 94.9 ± 1.2%; the viability at 48 h, 1 µM was found to be 92.9 ± 0.6%; the viability at 48 h, 10 µM was found to be 91 ± 0.9%. For the same molecule, in data set [3], the viability at 48 h, 100 µM was found to be 55 ± 1.1% and the IC50 at 48 h is over 100 µM.

As for `Cc1nc(NC(=O)OCC(C)C)c(C)c(C)c1O` [Compound 20-3, isobutyl (5-hydroxy-3,4,6-trimethylpyridin-2-yl)carbamate], the inhibition at 1 µM in data set [1] is 6%. Further, in data set [2], the viability at 48 h, 0.01 µM amounted to 101 ± 1.9%; the viability at 48 h, 0.1 µM was determined as 91 ± 3.6%; the viability at 48 h, 1 µM came to 93.3 ± 4.7%; the viability at 48 h, 10 µM is 83.7 ± 3.3%. In data set [2], the viability at 48 h, 100 µM turned out to be 71.2 ± 3.4%. Moreover, in data set [2] (setting [4]), the concentration for half-maximal inhibition (IC50) at 48 h was over 100 µM. In data set [3], the viability at 48 h, 0.01 µM stood at 86.3 ± 0.4%; the viability at 48 h, 0.1 µM is 86.3 ± 0.9%; the viability at 48 h, 1 µM worked out at 80.9 ± 2.1%; the viability at 48 h, 10 µM was found to be 82.2 ± 0.5%. In data set [3], the viability at 48 h, 100 µM turned out to be 72.5 ± 1.9% and the half-inhibitory concentration (IC50) at 48 h is over 100 µM.

As for `CCCCOC(=O)Nc1nc(C)c(O)c(C)c1C` [Compound 20-2, butyl (5-hydroxy-3,4,6-trimethylpyridin-2-yl)carbamate], the inhibition at 1 µM in data set [1] was 26.9%. Besides, in data set [2], the viability at 48 h, 0.01 µM is 102 ± 1.4%; the viability at 48 h, 0.1 µM stood at 102 ± 3.2%; the viability at 48 h, 1 µM was 98.1 ± 3.4%; the viability at 48 h, 10 µM stood at 98.3 ± 3.8%. In addition, the viability at 48 h, 100 µM in data set [2] worked out at 67.6 ± 1.9%. The concentration for half-maximal inhibition (IC50) at 48 h in data set [2] (setting [4]) is over 100 µM. Besides, in data set [3], the viability at 48 h, 0.01 µM is 87.4 ± 1.3%; the viability at 48 h, 0.1 µM turned out to be 84.4 ± 2.3%; the viability at 48 h, 1 µM stood at 84.6 ± 2%; the viability at 48 h, 10 µM was determined as 80.7 ± 0.8%. In data set [3], the viability at 48 h, 100 µM was found to be 74.4 ± 3.8% and the IC50 at 48 h is over 100 µM.

Regarding `COCCOC(=O)Nc1nc(C)c(O)c(C)c1C` [Compound 20-5, 2-methoxyethyl (5-hydroxy-3,4,6-trimethylpyridin-2-yl)carbamate], in data set [1], the inhibition at 1 µM was -22.5%. Also, in data set [2], the viability at 48 h, 0.01 µM was 89.7 ± 1.2%; the viability at 48 h, 0.1 µM came out at 83.2 ± 2.6%; the viability at 48 h, 1 µM came out at 84.7 ± 1.6%; the viability at 48 h, 10 µM came to 85.5 ± 3.3%. In data set [2], the viability at 48 h, 100 µM was found to be 82.3 ± 1.1%. In addition, the IC50 at 48 h in data set [2] (setting [4]) was over 100 µM. In data set [3], the viability at 48 h, 0.01 µM turned out to be 85.4 ± 4.4%; the viability at 48 h, 0.1 µM worked out at 84.2 ± 4.1%; the viability at 48 h, 1 µM amounted to 81.2 ± 0.7%; the viability at 48 h, 10 µM was 79.9 ± 0.8%. In data set [3], the viability at 48 h, 100 µM worked out at 77.9 ± 0.8% and the IC50 at 48 h was over 100 µM.

Turning to `Cc1nc(NC(=O)OCCCl)c(C)c(C)c1O` [Compound 20-4, 2-Chloroethyl (5-hydroxy-3,4,6-trimethylpyridin-2-yl)carbamate], the inhibition at 1 µM in data set [1] is -1.5%. In data set [2], the viability at 48 h, 0.01 µM came out at 97.4 ± 2.2%; the viability at 48 h, 0.1 µM came to 94.7 ± 3.3%; the viability at 48 h, 1 µM turned out to be 88.6 ± 2.2%; the viability at 48 h, 10 µM stood at 90.2 ± 5.3%. For the same molecule, the viability at 48 h, 100 µM in data set [2] stood at 86.7 ± 3.1%. For the same molecule, the IC50 at 48 h in data set [2] (setting [4]) is over 100 µM. Further, in data set [3], the viability at 48 h, 0.01 µM turned out to be 86.1 ± 3.1%; the viability at 48 h, 0.1 µM came to 82.7 ± 1%; the viability at 48 h, 1 µM amounted to 83.4 ± 1.3%; the viability at 48 h, 10 µM amounted to 83 ± 0.5%. In data set [3], the viability at 48 h, 100 µM worked out at 79.2 ± 1.3% and the half-inhibitory concentration (IC50) at 48 h was over 100 µM.

Consider `CCCNC(=O)Nc1nc(C)c(O)c(C)c1C` [Compound 16-1, 1-(5-hydroxy-3,4,6-trimethylpyridin-2-yl)-3-propylurea], for which the inhibition at 1 µM in data set [1] is 18.2%. Besides, in data set [2], the viability at 48 h, 0.01 µM was 94.9 ± 6.5%; the viability at 48 h, 0.1 µM was 84.4 ± 7.6%; the viability at 48 h, 1 µM was 84.4 ± 4.2%; the viability at 48 h, 10 µM was 70.9 ± 6.2%. The viability at 48 h, 100 µM in data set [2] is 42.8 ± 2.7%. In data set [2] (text of b533, read-out: cytotoxicity IC50 for HT-29), the half-maximal inhibitory concentration (IC50) at 48 h came out at 64.6 µM. In data set [3], the viability at 48 h, 0.01 µM worked out at 89.1 ± 3.5%; the viability at 48 h, 0.1 µM came to 88.4 ± 3.5%; the viability at 48 h, 1 µM was determined as 90 ± 4.8%; the viability at 48 h, 10 µM came out at 75.2 ± 0.9%. For the same molecule, in data set [3], the viability at 48 h, 100 µM turned out to be 44.2 ± 0.7% and the 50% inhibitory concentration (IC50) at 48 h was 15.4 µM.

`Cc1nc(NS(=O)(=O)c2ccc([N+](=O)[O-])cc2)c(C)c(C)c1O` [Compound 22-4, N-(5-hydroxy-3,4,6-trimethylpyridin-2-yl)-4-nitrobenzenesulfonamide]: the inhibition at 1 µM in data set [1] is -2.3%. Also, in data set [2], the viability at 48 h, 0.01 µM is 96.6 ± 1.3%; the viability at 48 h, 0.1 µM was found to be 97.8 ± 2.4%; the viability at 48 h, 1 µM was determined as 96.3 ± 1.7%; the viability at 48 h, 10 µM came out at 85.4 ± 6.7%. The viability at 48 h, 100 µM in data set [2] is 64.8 ± 7.1%. The concentration for half-maximal inhibition (IC50) at 48 h in data set [2] (setting [4]) is over 100 µM. For the same molecule, in data set [3], the viability at 48 h, 0.01 µM was determined as 95.2 ± 4.6%; the viability at 48 h, 0.1 µM was determined as 93.3 ± 0.8%; the viability at 48 h, 1 µM stood at 80.2 ± 11.7%; the viability at 48 h, 10 µM came to 84.7 ± 1.7%. Further, in data set [3], the viability at 48 h, 100 µM came out at 70.6 ± 0.4% and the IC50 at 48 h was over 100 µM.
